Results as given in paper PMC2850272 (Bioorganic & medicinal chemistry, 2010).

Details: pH 7.4

Substance	Permeability (PAMPA)
2-(Benzo[d][1,3]dioxol-5-yl)-3-(ethoxymethyl)-5-methoxyquinoline [30b]	2796±1746 10^−6 cm/s
2-(Benzo[d][1,3]dioxol-5-yl)-4-chloro-3-(ethoxymethyl)-7-methoxyquinoline [28a]	802±370 10^−6 cm/s
Ethyl 2-(benzo[d][1,3]dioxol-5-yl)-5-methoxy-4-(methylamino)quinoline-3-carboxylate [25b]	1240±154 10^−6 cm/s
Ethyl 2-(benzo[d][1,3]dioxol-5-yl)-7-methoxy-4-(methylamino)quinoline-3-carboxylate [25a]	2013±179 10^−6 cm/s
